From patent US20140096967A1, “SALT-TOLERANT ANIONIC SURFACTANT COMPOSITIONS FOR ENHANCED OIL RECOVERY (EOR) APPLICATIONS” (Board of Regents, The University of Texas System, priority 2012, published 2014)
Read-outs that look alike come from different tables or passages of the source. Marks after values point to notes of the source that are not given here.

Columns and labels:
[1] = conventional sodium alkylsulfates; data from O'Lenick; cited from earlier work
[2] = data from Mukerjee et al. (1971), cited from earlier work
[3] = Static adsorption test on disaggregated Berea sandstone core particles; type: physicochemical; details: 10,000 mg/L NaCl, LSR of 40, 12 hrs. equilibration at 25° C. (FIG. 19)
From the text: Static Adsorption Tests. A static adsorption test was used for measuring surfactant adsorption at solid-water interfaces. The procedures were adopted from the study by Hanna et al. (1977). The adsorbents used for static adsorption tests were particles disaggregated from a Berea sandstone core and sieved through a 60 mesh screen ([…]). The use of 60 mesh screen is based on the consideration that a wider and thus more representative range of particle sizes could be included. The adsorbent grains were heated in the oven overnight and cooled in a desiccator over Drierite™ before use. The surfactant concentration was measured by Total Organic Carbon (TOC) method, which represents the amount of total carbon in the sample. […] The amount of surfactant adsorbed was determined by measuring different concentrations in the solution before and after contact with the adsorbents,
Where Γ (mg/g) is the surfactant adsorption density on the adsorbents; Co and C (mg/L) are surfactant concentrations before and after adsorption tests; V (ml) is the volume of surfactant solution used in the test, and M (gram) is the mass of the adsorbents used in the test. A dimensionless quantity θ can be defined as follows: […]
Equilibrium Adsorption Time. To ensure true equilibrium adsorption, the progression of 16-4-16 adsorption level with time was recorded to identify a suitable duration for equilibration. […]

SMILES	Krafft Point [1]	CMC ([2]; 30° C.)	CMC ([2]; 40° C.)	CMC ([2]; 60° C.)	maximum adsorption density, trend among surfactants [3]
CCCCCCCCCCCCOS(=O)(=O)[O-].[Na+] [C12—SO4^− Na^+]	16* ° C.	8230** 10^−3 mmol/L	8600** 10^−3 mmol/L	10160** 10^−3 mmol/L	–
CCCCCCCCCCCCCCOS(=O)(=O)[O-].[Na+] [C14—SO4^− Na^+]	28* ° C.	2080** 10^−3 mmol/L	2210** 10^−3 mmol/L	2770** 10^−3 mmol/L	–
CCCCCCCCCCCCCCCCOS(=O)(=O)[O-].[Na+] [C16—SO4^− Na^+, sodium hexadecyl sulfate]	45* ° C.	–	580** 10^−3 mmol/L	–	16-4-16<SHS<S13-C
